Measured values taken from paper PMC3733398 (ACS medicinal chemistry letters, 2013).
In brackets after ≈: the same amount, converted by molar mass. Several values for one entry are separate records, joined by “and”; a condition that tells them apart may be missing. Identical values can stand only once.

Legend:
[1] = test system: DS-Mtb1 (drug sensitive clinical isolate #1); assay: MIC against clinical strain DS-Mtb1; assay type: cell-based; details: Mycobacterium tuberculosis
[2] = test system: DS-Mtb2 (drug sensitive clinical isolate #2); assay: MIC against clinical strain DS-Mtb2; assay type: cell-based; details: Mycobacterium tuberculosis, 90% growth inhibition by optical density
MDR-Mtb HREZSKP = assay: microbe, parasite or virus in culture; assay type: cell-based; details: Mycobacterium tuberculosis
MDR-Mtb HREKP = assay: microbe, parasite or virus in culture; assay type: cell-based; details: Mycobacterium tuberculosis
MDR-Mtb HRERb = assay: microbe, parasite or virus in culture; assay type: cell-based; details: Mycobacterium tuberculosis
XDR-Mtb HRESKO = assay: microbe, parasite or virus in culture; assay type: cell-based; details: Mycobacterium tuberculosis
XDR-Mtb HREKO = assay: microbe, parasite or virus in culture; assay type: cell-based; details: Mycobacterium tuberculosis
in vivo = details: rat, iv, 1 mg/kg
in vitro = in vitro ADME
[3] = rat, microsomes
CYP3A4 [4] = target: T1, CYP3A4 (Homo sapiens, UniProt P08684); assay: Time dependent inhibition of human CYP3A4; details: at 10 μM
CYP3A4 [5] = target: T1, CYP3A4; assay: Human cytochrome P-450 inhibition, CYP 3A4; details: panel of human cytochrome P-450 enzymes
Mtb H37Rv = assay: MIC against replicating Mtb H37Rv, dual read-out; assay type: cell-based; details: Mycobacterium tuberculosis
[6] = test system: sensitive, MDR and XDR clinical Mtb strains; assay type: cell-based, Mycobacterium tuberculosis; details: range over the DS, MDR and XDR clinical strains of Table 2

T1 sequence (P08684 whole entry): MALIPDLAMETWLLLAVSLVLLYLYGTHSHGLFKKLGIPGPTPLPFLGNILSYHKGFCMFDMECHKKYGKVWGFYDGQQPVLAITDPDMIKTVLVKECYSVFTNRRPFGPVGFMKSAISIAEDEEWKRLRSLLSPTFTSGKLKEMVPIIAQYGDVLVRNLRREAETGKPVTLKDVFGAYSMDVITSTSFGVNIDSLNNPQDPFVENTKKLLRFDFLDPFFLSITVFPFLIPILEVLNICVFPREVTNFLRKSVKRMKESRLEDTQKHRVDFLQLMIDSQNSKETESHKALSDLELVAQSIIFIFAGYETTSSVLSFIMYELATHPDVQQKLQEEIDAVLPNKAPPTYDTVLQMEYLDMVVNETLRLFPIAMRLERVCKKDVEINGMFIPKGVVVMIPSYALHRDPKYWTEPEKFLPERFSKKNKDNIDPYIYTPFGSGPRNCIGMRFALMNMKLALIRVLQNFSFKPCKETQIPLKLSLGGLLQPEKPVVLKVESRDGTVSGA

Compound | MIC [1] | MIC [2] | MIC (MDR-Mtb HREZSKP) | MIC (MDR-Mtb HREKP) | MIC (MDR-Mtb HRERb) | MIC (XDR-Mtb HRESKO) | MIC (XDR-Mtb HREKO) | clearance (in vivo) | fraction unbound (in vitro) | % metabolized [3] | time dependent inhibition of human CYP3A4 (CYP3A4 [4]) | inhibition at 10 µM (CYP3A4 [5]) | MIC (Mtb H37Rv) | MIC range against the clinical strains [6]
Cc1ccc2nc(C)c(C(=O)NCc3ccccc3)n2c1 [Compound 9] | 0.04 µM to 0.07 µM and 0.01 µg/mL to 0.02 µg/mL | < 0.01 µg/mL | < 0.01 µg/mL | < 0.01 µg/mL | 0.63 µg/mL (≈ 2.26 µM) | < 0.01 µg/mL | < 0.01 µg/mL | – | – | – | – | – | – | –
Cc1ccn2c(C(=O)NCc3ncc(C(F)(F)F)cc3Cl)c(C)nc2c1 [Compound 13] | 0.3 µg/mL (≈ 0.784 µM) | 0.3 µg/mL (≈ 0.784 µM) | 2.5 µg/mL (≈ 6.53 µM) | 0.2 µg/mL (≈ 0.523 µM) | 13 µM to 26 µM and 5 µg/mL to 10 µg/mL | 0.3 µg/mL (≈ 0.784 µM) | 0.3 µg/mL (≈ 0.784 µM) | 25 mL/min/kg | 0.089 | 19% | time dependent inhibitors | 0% | – | –
Cc1ccn2c(C(=O)NCc3ccc(Oc4ccc(F)cc4)cc3)c(C)nc2c1 [Compound 18] | < 0.01 µg/mL | < 0.01 µg/mL | 0.03 µM to 0.8 µM and 0.01 µg/mL to 0.3 µg/mL | < 0.01 µg/mL | 0.31 µg/mL (≈ 0.796 µM) | < 0.01 µg/mL | < 0.01 µg/mL | – | – | – | time dependent inhibitors | – | < 0.005 µM | <0.03 to 0.8 µM
O=[N+]([O-])c1cn2c(n1)OC[C@@H](OCc1ccc(OC(F)(F)F)cc1)C2 [PA-824, reference compound] | 0.5 µM to 0.9 µM and 0.2 µg/mL to 0.3 µg/mL | > 5 µg/mL | 0.5 µM to 0.9 µM and 0.2 µg/mL to 0.3 µg/mL | 0.5 µM to 0.9 µM and 0.2 µg/mL to 0.3 µg/mL | 0.5 µM to 0.9 µM and 0.2 µg/mL to 0.3 µg/mL | 0.3 µg/mL (≈ 0.835 µM) | 0.08 µg/mL (≈ 0.223 µM) | – | – | – | – | – | – | –
